Laboratory results from US7414048B2, “4,5-dihydro-isoxazole derivatives and their pharmaceutical use” (Janssen Pharmaceutica, N.V., priority 1998, dated 2008).

Test system: T cell blast formation in human blood
Experiment: In vitro inhibition of T cell blast formation in human blood (human whole blood blast formation, PHA stimulated, flow cytometry)
Format: cell-based
Settings: 72 hours, mean where multiple measurements
Experimental: Cells are collected after a 72 hours culture period at 37° C., supernatant is removed by centrifugation and red blood cells are lysed by a hypotonic buffer. The remaining white blood cells are collected in PBS containing propidium iodide. The blast formation is analyzed using a benchtop flow cytometer (Cytoron, Ortho) equipped with an argon-ion laser. […] When multiple measurements were performed, a mean value was calculated for the percentage inhibition of T cell blast formation.

[1] = Test Dose 1 × 10^−6 (unit not given)
[2] = Test Dose 3 × 10^−7 (unit not given)
[3] = Test Dose 1 × 10^−7 (unit not given)

Compound | % Inhibition of T cell blast formation [1] | % Inhibition of T cell blast formation [2] | further results
O=C(Nc1ccc(C(c2ccccc2)N2CCOCC2)cc1)C1CC(c2cccnc2)=NO1 (centres unmarked) [Compound 221] | 63% |  | 
CCOc1ccc(C)c(NC(c2ccccc2)c2ccc(NC(=O)C3CC(c4cccnc4)=NO3)cc2)c1 (centres unmarked) [Compound 172] | 35% |  | 
C#CC(O)(c1ccccc1)c1ccc(NC(=O)C2CC(c3cccnc3)=NO2)cc1 (racemic) [Compound 69, [B(R)]±[B(S)]-4,5-dihydro-N-[4-(1-hydroxy-1-phenyl-2-propynyl)phenyl]-3-(3-pyridinyl)-5-isoxazolecarboxamide] | 73% |  | 
O=C(Nc1ccc(C(NCc2ccncc2)c2ccccc2)cc1)C1CC(c2cccnc2)=NO1 (centres unmarked) [Compound 97] | 58% |  | 
Nc1nc(-c2ccccc2)c(C(c2ccccc2)c2ccc(NC(=O)C3CC(c4cccnc4)=NO3)cc2)s1 (centres unmarked) [Compound 53] | 39% |  | 
O=C(Nc1ccc(Oc2ccccc2)cc1)C1CC(c2cccnc2)=NO1 (centres unmarked) [Compound 36] |  |  | % Inhibition of T cell blast formation (Test Dose 1 × 10^−5 (unit not given)): 85%
O=C(Nc1ccc(C(NC2CCN(Cc3ccccc3)CC2)c2ccccc2)cc1)C1CC(c2cccnc2)=NO1 (centres unmarked) [Compound 104] | 60% |  | 
COc1ccccc1/C=C/C(=O)c1ccc(NC(=O)C2CC(c3cccnc3)=NO2)cc1 (racemic) [Compound 477] |  | 63% | 
Cn1cnc2cc(NC(c3ccccc3)c3ccc(NC(=O)C4CC(c5cccnc5)=NO4)cc3)ccc21 (centres unmarked) [Compound 101] | 70% |  | 
COCCOC(c1ccccc1)c1ccc(NC(=O)C2CC(c3cccnc3)=NO2)cc1 (centres unmarked) [Compound 416] | 87% |  | 
CNC(=O)c1ccc(CNC(=O)c2ccc(NC(=O)C3CC(c4cccnc4)=NO3)cc2)cc1 (centres unmarked) [Compound 427] | 80% |  | 
COc1cc(C(=O)c2ccc(NC(=O)C3CC(c4cccnc4)=NO3)cc2)cc(OC)c1OC (centres unmarked) [Compound 396] | 65% |  | 
O=C(c1ccc(NC(=O)C2CC(c3cccnc3)=NO2)cc1)c1ccccn1 (single isomer, unassigned) [Compound 394] | 84% |  | 
O=C(Nc1ccc(-c2n[nH]c3cc(F)ccc23)cc1)C1CC(c2cccnc2)=NO1 (centres unmarked) [Compound 463] |  | 33% | 
O=C(NCc1cnc2ccccc2c1)c1ccc(NC(=O)C2CC(c3cccnc3)=NO2)cc1 (centres unmarked) [Compound 291] | 78% |  | 
O=C(NCc1ccccc1Br)c1ccc(NC(=O)C2CC(c3cccnc3)=NO2)cc1 (centres unmarked) [Compound 269] | 67% |  | 
O=C(Nc1ccc(C(=NO)c2ccccn2)cc1)C1CC(c2cccnc2)=NO1 (centres unmarked) [Compound 439] | 79% |  | 
O=C(Nc1ccc(C(=NO)c2ccncc2)cc1)C1CC(c2cccnc2)=NO1 (centres unmarked) [Compound 428] |  |  | % Inhibition of T cell blast formation [3]: 57%
O=C(c1ccc(NC(=O)C2CC(c3cccnc3)=NO2)cc1)c1ccc2ccccc2n1 (centres unmarked) [Compound 392] | 80% |  | 
O=C(Nc1ccc(-c2nc(-c3ccccc3)no2)cc1)C1CC(c2cccnc2)=NO1 (centres unmarked) [Compound 453] | 61% |  | 
COc1ccc(C(=NO)c2ccc(NC(=O)C3CC(c4cccnc4)=NO3)cc2)cc1OC (centres unmarked) [Compound 437] |  | 75% | 
COc1ccc(CNC(=O)c2ccc(NC(=O)C3CC(c4cccnc4)=NO3)cc2)cc1 (centres unmarked) [Compound 290] | 67% |  | 
O=C(c1ccc(NC(=O)C2CC(c3cccnc3)=NO2)cc1)c1ccc2c(c1)OCO2 (centres unmarked) [Compound 389] |  | 59% | 
O=C(Nc1ccc(-n2cnc3ccccc32)cc1)C1CC(c2cccnc2)=NO1 (centres unmarked) [Compound 464] | 85% |  | 

Compound | % Inhibition of T cell blast formation [1] | % Inhibition of T cell blast formation [2] | further results
NC(=O)C(c1ccc(Cl)cc1Cl)c1ccc(NC(=O)C2CC(c3cccnc3)=NO2)cc1Cl (centres unmarked) [Compound 310] |  | 64% | 
CC(C)(NC(=O)c1ccc(NC(=O)C2CC(c3cccnc3)=NO2)cc1)c1ccccc1 (centres unmarked) [Compound 259] | 51% |  | 
O=C(Nc1ccc(Nc2ccc(S(=O)(=O)C(F)(F)F)cc2)cc1)C1CC(c2cccnc2)=NO1 (centres unmarked) [Compound 376] |  | 69% | 
O=C(/C=C/c1ccccc1C(F)(F)F)c1ccc(NC(=O)C2CC(c3cccnc3)=NO2)cc1 (racemic) [Compound 471] |  | 54% | 
O=C(Nc1ccc(C(O)(Cc2cccnc2)c2ccccc2)cc1)C1CC(c2cccnc2)=NO1 (centres unmarked) [Compound 73] |  | 67% | 
O=C(Nc1ccc(C(=O)N2CCC(O)(Cc3ccccc3)CC2)cc1)C1CC(c2cccnc2)=NO1 (centres unmarked) [Compound 304] |  | 36% | 
NC(=O)c1ccccc1NC(c1ccccc1)c1ccc(NC(=O)C2CC(c3cccnc3)=NO2)cc1 (centres unmarked) [Compound 192] | 72% |  | 
O=C(c1ccc(NC(=O)C2CC(c3cccnc3)=NO2)cc1)c1c(F)cccc1F (centres unmarked) [Compound 385] |  | 69% | 
O=C(Nc1ccc(C(=NO)c2ccc(F)cc2F)cc1)C1CC(c2cccnc2)=NO1 (centres unmarked) [Compound 435] |  |  | % Inhibition of T cell blast formation [3]: 81%
CN(CC(N)=O)C(c1ccccc1)c1ccc(NC(=O)C2CC(c3cccnc3)=NO2)cc1 (centres unmarked) [Compound 163] |  | 56% | 
Cc1nc2ccccc2n1-c1ccc(NC(=O)C2CC(c3cccnc3)=NO2)cc1 (centres unmarked) [Compound 467] | 82% |  | 
O.O=C(c1ccccc1)c1ccc(NC(=O)[C@@H]2CC(c3cccnc3)=NO2)cc1 [Compound 491, (S)-N-(4-benzoylphenyl)-4,5-dihydro-3-(3-pyridinyl)-5-isoxazolecarboxamide (1:1) monohydrate] |  |  | % Inhibition of T cell blast formation [3]: 70%
O=C(/C=C/c1ccccc1F)c1ccc(NC(=O)C2CC(c3cccnc3)=NO2)cc1 (racemic) [Compound 473] |  | 72% | 
O=C(/C=C/c1c(F)cccc1Cl)c1ccc(NC(=O)C2CC(c3cccnc3)=NO2)cc1 (racemic) [Compound 476] |  | 67% | 
COc1ccccc1CNC(=O)c1ccc(NC(=O)C2CC(c3cccnc3)=NO2)cc1 (centres unmarked) [Compound 285] | 72% |  | 
O=C(Nc1ccc(C(O)c2ccccc2)cc1)[C@@H]1CC(c2cccnc2)=NO1 (some centres unmarked) [Compound 412] |  | 79% | 
COc1cc(CNC(=O)c2ccc(NC(=O)C3CC(c4cccnc4)=NO3)cc2)cc(OC)c1OC (centres unmarked) [Compound 281] | 74% |  | 
O=C(/C=C/c1c(F)cccc1F)c1ccc(NC(=O)C2CC(c3cccnc3)=NO2)cc1 (racemic) [Compound 468] |  | 61% | 
NC(=O)C(c1ccc(Cl)cc1)c1ccc(NC(=O)C2CC(c3cccnc3)=NO2)cc1Cl (centres unmarked) [Compound 309] | 92% |  | 
O=C(Nc1ccc(C(=O)N2CCC(c3ccccc3)CC2)cc1)C1CC(c2cccnc2)=NO1 (centres unmarked) [Compound 307] |  | 41% | 
COc1ccc(C(=NO)c2ccc(NC(=O)C3CC(c4cccnc4)=NO3)cc2)c(OC)c1 (centres unmarked) [Compound 438] |  |  | % Inhibition of T cell blast formation [3]: 82%
CN(CCC1OCCO1)C(c1ccccc1)c1ccc(NC(=O)C2CC(c3cccnc3)=NO2)cc1 (centres unmarked) [Compound 122] |  | 36% | 
Nc1ccc(C(=O)c2ccc(NC(=O)C3CC(c4cccnc4)=NO3)cc2)cc1 (centres unmarked) [Compound 17] |  | 53% | 
